Drawing on patent US20090227560A1, “Substituted imidazole compound and use thereof” (priority 2007, published 2009), this text covers inhibition for 21 compounds.

This assay has as its target T1, Human renin (Homo sapiens, UniProt P00797).
T1 construct: thus to obtain 1.5 mg of a purified product of active type renin (67-406); made in house; host or cells: FreeStyle 293-F cells (transient expression of pcDNA3.1(+)/hREN)
T1 sequence (P00797 67-406): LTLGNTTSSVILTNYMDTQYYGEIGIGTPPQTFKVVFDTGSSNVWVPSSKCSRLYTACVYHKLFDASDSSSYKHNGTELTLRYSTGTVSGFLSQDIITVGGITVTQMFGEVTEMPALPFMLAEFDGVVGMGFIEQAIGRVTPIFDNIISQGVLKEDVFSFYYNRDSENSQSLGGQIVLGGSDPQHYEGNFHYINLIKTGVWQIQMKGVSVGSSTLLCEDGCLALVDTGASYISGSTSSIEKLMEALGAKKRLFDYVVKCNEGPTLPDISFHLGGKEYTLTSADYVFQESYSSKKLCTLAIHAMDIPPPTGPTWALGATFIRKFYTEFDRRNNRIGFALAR
The assay can be described thus: Measurement of renin inhibition value A (FITC-labelled substrate peptide, capillary electrophoresis). The conditions noted are these: test compound 1 μM, renin 4.7 nM, pH 6.0, 37° C., 30 min, read-out: inhibitory activity (%) at 1 μM. It counts as biochemical. As for the experimental part:
Human renin was obtained by expressing preprorenin (1-406) in an animal cell, treating the prorenin (24-406) contained in the culture supernatant with trypsin, and taking the active type (67-406).
To 3.6 mg of prorenin (24-406) dissolved in 5.2 ml of 0.1 M Tris-hydrochloric acid (pH 8.0), 12 μg of trypsin (Roche Diagnostics Corp.) was added, and the mixture was allowed to react at 28° C. for 55 min to carry out activation of renin. After the reaction, 0.4 ml of immobilized trypsin inhibitor (Pierce Biotechnology, Inc.) was added to remove the trypsin used in the activation by adsorption. The reaction liquid containing the active type renin was concentrated using Vivaspin 20 (molecular weight cut off 10,000, Vivascience, Inc.), and was diluted with 20 mM Tris-hydrochloric acid (pH 8.0). The diluted liquid was fed to a TSKgel DEAE-5PW column (7.5 mm I.D.×75 mm, Tosoh Corp.) equilibrated with 20 mM Tris-hydrochloric acid (pH 8.0) at a flow rate of 1 ml/min to adsorb the active type renin (67-406). The column was washed with the buffer solution used for the equilibration, and then elution was carried out by means of a sodium chloride linear concentration gradient from 0 M to 0.3 M, thus to obtain 1.5 mg of a purified product of active type renin (67-406).
As a substrate for renin activity measurement, a substrate peptide (FITC-Acp-Asp-Arg-Val-Tyr-Ile-His-Pro-Phe-His-Leu-Val-Ile-His-Gln-Arg-NH2; SEQ ID No.8) wherein the N-terminal of a peptide prepared in reference to a partial sequence (Asp-Arg-Val-Tyr-Ile-His-Pro-Phe-His-Leu-Val-Ile-His-Asn-Glu-NH2; SEQ ID No.7) of human angiotensinogen was bound with epsilon aminocaproic acid (Acp) as a linker and labeled with a fluorescence reagent Fluorescein isothiocyanate (FITC). 2 μl each of the test compound (containing 100% DMSO) was added to each well of a 384-well black plate (Nalge Nunc International Co., Ltd.). Renin was diluted with a buffer solution for reaction (20 mM citric acid-sodium citrate (pH 6.0)) to a concentration of 4.7 nM, and 30 μl each of the dilution was added to each well. The dilution was left to stand at 37° C. for 10 min, and then 8 μl of each of a 25 μM solution of substrate peptide was added to each well to initiate the reaction. The reaction mixture was left to stand at 37° C. for 30 min, and then 40 μl each of a reaction terminating solution [200 mM Tris-hydrochloric acid (pH 8.0), 0.04% Triton-X 100, 0.4% Coating 3 reagent (Caliper Life Sciences Corp.) and 1 μM CGP-29287 (Bachem Holding AG)] was added to each well to terminate the reaction.
The substrate peptide and the product peptide were separated by a microchip type capillary electrophoresis system 250HTS (Caliper Life Sciences Co., Ltd.), and the rate of reaction [(peak height of product)/(peak height of product+peak height of substrate)×100(%)] was calculated from the ratio of the respective peak height of the peptides obtained by fluorimetric detection (excitation wavelength 457 nm, measurement wavelength 530 nm), and was used as an index of the renin activity.
While the reaction rate of the well where 100% DMSO only was added was taken as 0% inhibition rate, and the reaction rate of the well where 10 μM of CGP-29287 was added was taken as 100% inhibition rate, the renin inhibitory activity of the wells where the test compound (containing 100% DMSO) was added was calculated.

Structures can show the parent of a compound that is named as a salt.

Turning to `O=C(c1ncn([C@H]2CCCC[C@H]2O)c1-c1ccccc1)N1CCNC[C@H]1Cc1cc(F)cc(F)c1` [Example 1, (1R,2S)-2-(4-{[(2R)-2-(3,5-Difluorobenzyl)piperazin-1-yl]carbonyl}-5-phenyl-1H-imidazol-1-yl)cyclohexanol hydrochloride], the inhibition at 1 µM is 96%. Then `O=C(c1ncn(CC2(O)CCCCC2)c1-c1ccccc1)N1CCNC[C@H]1Cc1ccccc1` [Example 4, 1-[(4-{[(2R)-2-Benzylpiperazin-1-yl]carbonyl}-5-phenyl-1H-imidazol-1-yl)methyl]cyclohexanol], with 99%. For `COC(=O)N[C@H]1CCCC[C@@H]1n1cnc(C(=O)N2CCNC[C@H]2Cc2ccccc2)c1-c1ccccc1` [Example 6, Methyl [(1S,2S)-2-(4-{[(2R)-2-benzylpiperazin-1-yl]carbonyl}-5-phenyl-1H-imidazol-1-yl)cyclohexyl]carbamate], the inhibition at 1 µM turned out to be 98%.

`O=C(c1ncn(C2CCCCC[C@@H]2O)c1-c1ccccc1)N1CCNC[C@H]1Cc1ccccc1` (stereo partly drawn) [Example 7, trans-2-(4-{[(2R)-2-Benzylpiperazin-1-yl]carbonyl}-5-phenyl-1H-imidazol-1-yl)cycloheptanol]: the inhibition at 1 µM worked out at 100%. The value for `COC[C@]1(O)CCCC[C@H]1n1cnc(C(=O)N2CCNC[C@H]2CCOc2ccc(C(=O)OC)cc2)c1-c1ccccc1` [Example 15, Methyl 4-{2-[(2R)-1-({1-[(1R,2S)-2-hydroxy-2-(methoxymethyl)cyclohexyl]-5-phenyl-1H-imidazol-4-yl}carbonyl)piperazin-2-yl]ethoxy}benzoate] was 96%; that for `O=C(c1ncn(C2CCCCC2)c1-c1ccccc1)N1CCNC[C@H]1Cc1ccccc1` [Example 349, (2R)-2-Benzyl-1-[(1-cyclohexyl-5-phenyl-1H-imidazol-4-yl)carbonyl]piperazine] was 101%. Take `O=C(c1ncn([C@H]2CCCC[C@H]2O)c1-c1ccccc1)N1CCNC[C@H]1Cc1ccccc1` [Example 352, (1R,2S)-2-(4-{[(2R)-2-Benzylpiperazin-1-yl]carbonyl}-5-phenyl-1H-imidazol-1-yl)cyclohexanol]: the inhibition at 1 µM amounted to 101%. Consider `CCOC(=O)N[C@H]1CCCC[C@@H]1n1cnc(C(=O)N2CCNC[C@H]2Cc2ccccc2)c1-c1ccccc1` [Example 357, Ethyl [(1S,2S)-2-(4-{[(2R)-2-benzylpiperazin-1-yl]carbonyl}-5-phenyl-1H-imidazol-1-yl)cyclohexyl]carbamate], for which the inhibition at 1 µM was found to be 100%. Then `CCOC(=O)N[C@H]1CCCC[C@@H]1n1cnc(C(=O)N2CCNC[C@H]2Cc2cc(F)cc(F)c2)c1-c1ccccc1` [Example 358, Ethyl [(1S,2S)-2-(4-{[(2R)-2-(3,5-difluorobenzyl)piperazin-1-yl]carbonyl}-5-phenyl-1H-imidazol-1-yl)cyclohexyl]carbamate], with 103%. As to `CCCCC1(O)CCCCC1n1cnc(C(=O)N2CCNC[C@H]2Cc2ccccc2)c1-c1ccccc1` (stereo partly drawn) [Example 360, 2-(4-{[(2R)-2-Benzylpiperazin-1-yl]carbonyl}-5-phenyl-1H-imidazol-1-yl)-1-butylcyclohexanol hydrochloride], the inhibition at 1 µM was determined as 99%. As for `CCOCC1(O)CCCCC1n1cnc(C(=O)N2CCNC[C@H]2Cc2ccccc2)c1-c1ccccc1` (stereo partly drawn) [Example 361, 2-(4-{[(2R)-2-Benzylpiperazin-1-yl]carbonyl}-5-phenyl-1H-imidazol-1-yl)-1-(ethoxymethyl)cyclohexanol], the inhibition at 1 µM is 100%.

As to `O=C(c1ncn([C@@H]2CCCC[C@@]2(O)CC2CC2)c1-c1ccccc1)N1CCNC[C@H]1Cc1ccccc1` [Example 363, (1R,2R)-2-(4-{[(2R)-2-Benzylpiperazin-1-yl]carbonyl}-5-phenyl-1H-imidazol-1-yl)-1-(cyclopropylmethyl)cyclohexanol hydrochloride], the inhibition at 1 µM is 98%. The value for `COC[C@]1(O)CCCC[C@H]1n1cnc(C(=O)N2CCNC[C@H]2Cc2ccccc2)c1-c1ccccc1` [Example 367, (1S,2R)-2-(4-{[(2R)-2-Benzylpiperazin-1-yl]carbonyl}-5-phenyl-1H-imidazol-1-yl)-1-(methoxymethyl)cyclohexanol dihydrochloride] was 99%. With `CSCCCOC[C@@]1(O)CCCC[C@@H]1n1cnc(C(=O)N2CCNC[C@H]2Cc2ccccc2)c1-c1ccccc1` [Example 378, (1R,2S)-2-(4-{[(2R)-2-Benzylpiperazin-1-yl]carbonyl}-5-phenyl-1H-imidazol-1-yl)-1-{[3-(methylthio)propoxy]methyl}cyclohexanol], the inhibition at 1 µM was found to be 99%. Consider `COC[C@]1(O)CCCC[C@H]1n1cnc(C(=O)N2CCNC[C@H]2Cc2cc(F)cc(F)c2)c1-c1ccccc1` [Example 379, (1S,2R)-2-(4-{[(2R)-2-(3,5-Difluorobenzyl)piperazin-1-yl]carbonyl}-5-phenyl-1H-imidazol-1-yl)-1-(methoxymethyl)cyclohexanol hydrochloride], for which the inhibition at 1 µM was determined as 99%. With `COC[C@]1(O)CCCC[C@H]1n1cnc(C(=O)N2CCNC[C@H]2Cc2cccnc2)c1-c1ccccc1` [Example 380, (1S,2R)-1-(Methoxymethyl)-2-(5-phenyl-4-{[(2R)-2-(pyridin-3-ylmethyl)piperazin-1-yl]carbonyl}-1H-imidazol-1-yl)cyclohexanol dihydrochloride], the inhibition at 1 µM was 100%. Then `COC[C@]1(O)CCCC[C@H]1n1cnc(C(=O)N2CCNC[C@H]2Cc2ccccc2)c1-c1cccc(F)c1` [Example 383, (1S,2R)-2-[4-{[(2R)-2-Benzylpiperazin-1-yl]carbonyl}-5-(3-fluorophenyl)-1H-imidazol-1-yl]-1-(methoxymethyl)cyclohexanol], with 100%. As to `COC[C@]1(O)CCCC[C@H]1n1cnc(C(=O)N2CCNC[C@H]2CCOc2ccccc2)c1-c1ccccc1` [Example 387, (1S,2R)-1-(Methoxymethyl)-2-(4-{[(2R)-2-(2-phenoxyethyl)piperazin-1-yl]carbonyl}-5-phenyl-1H-imidazol-1-yl)cyclohexanol dihydrochloride], the inhibition at 1 µM came to 109%. `COC[C@]1(O)CCCC[C@H]1n1cnc(C(=O)N2CCNC[C@H]2CCOc2ccccc2F)c1-c1ccccc1` [Example 389, (1S,2R)-2-[4-({(2R)-2-[2-(2-Fluorophenoxy)ethyl]piperazin-1-yl}carbonyl)-5-phenyl-1H-imidazol-1-yl]-1-(methoxymethyl)cyclohexanol]: the inhibition at 1 µM was 106%. `COC[C@]1(O)CCCC[C@H]1n1cnc(C(=O)N2CCNC[C@H]2CCOc2ccc(C(=O)NC3CC3)cc2)c1-c1ccccc1` [Example 390, N-Cyclopropyl-4-{2-[(2R)-1-({1-[(1R,2S)-2-hydroxy-2-(methoxymethyl)cyclohexyl]-5-phenyl-1H-imidazol-4-yl}carbonyl)piperazin-2-yl]ethoxy}benzamide]: the inhibition at 1 µM is 105%. Then `COC[C@]1(O)CCCC[C@H]1n1cnc(C(=O)N2CCNC[C@H]2CCn2ncc3ccccc32)c1-c1ccccc1` [Example 391, (1S,2R)-2-[4-({(2R)-2-[2-(1H-Indazol-1-yl)ethyl]piperazin-1-yl}carbonyl)-5-phenyl-1H-imidazol-1-yl]-1-(methoxymethyl)cyclohexanol], with 109%.
